Results published in US20100105652A1, “PURINES AS CYSTEINE PROTEASE INHIBITORS” (Glaxo Group Limited, priority 2007, published 2010).
Structures can show the parent of a compound that is named as a salt.

What was measured:
Falcipain-2 = target: T1, Falcipain-2 (Plasmodium falciparum, UniProt Q8I6U4); assay: falcipain-2 enzymatic assay (fluorogenic substrate H-D-VLR-AFC, endpoint); format: biochemical; conditions: parasitic recombinant enzyme, pH 5.5, quenched after 60 minutes
T1 sequence (Q8I6U4 244-484): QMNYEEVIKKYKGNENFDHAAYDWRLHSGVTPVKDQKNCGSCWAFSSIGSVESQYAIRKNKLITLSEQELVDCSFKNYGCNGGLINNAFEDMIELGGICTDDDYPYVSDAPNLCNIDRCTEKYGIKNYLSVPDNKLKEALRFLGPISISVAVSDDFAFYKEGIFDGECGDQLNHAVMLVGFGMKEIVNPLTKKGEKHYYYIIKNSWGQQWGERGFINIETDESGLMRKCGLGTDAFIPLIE
Description: (§1) 1) Determination of Falcipain-2, Falcipain-3, Vivapain-2, and Cathepsin S Proteolytic Catalytic Activity
(§2) Assays for Falcipain-2, Falcipain-3, and Vivapain-2 are carried out with parasitic recombinant enzymes. Cathepsins S is carried out with human recombinant enzymes. Standard assay conditions for the determination of kinetic constants used a fluorogenic peptide substrate, typically H-D-VLR-AFC (Falcipain-2, Falcipain-3, Vivapain-2) or KQKLR-AMC (Cathepsin S) and are determined in 100 mM sodium acetate, pH 5.5, containing 10 mM DTT and 0.5 mM CHAPS (Falcipain-2, Falcipain-3, Vivapain-2), or 50 mM MES, pH 6.5, containing 0.5 mM CHAPS, 10 mM L-CYS, 5 mM EDTA (Cathepsin S). Stock substrate solutions are prepared at 20 mM in DMSO. The activity assays contained 30 uM substrate (Falcipain-2, Falcipain-3, Vivapain-2), and 30 uM substrate (Cathepsin S). All assays contained 1% DMSO. […] All assays are conducted at ambient temperature as end point assays being quenched after 60 minutes with the exception of Cathepsin S at 90 minutes, with 16.6 uM E-64 in 1% DMSO. Product formation (AFC or AMC) is determined from fluorescence (excitation at 405 nm; emission at 530 nm, AFC, or excitation at 360 nm; emission at 460 nm, AMC) monitored with a LJL Aquest (Molecular Devices) fluorescent plate reader. In the case of kinetic reads (used in mechanism of action studies), the reaction is not quenched but is read in the plate reader every 3 minutes for approximately 90 minutes. In addition, the mechanism of action studies for Falcipain-2 utilize Z-LR-AMC as the substrate. Product formation is determined from the fluorescence of AMC, measured with a LJL Acquest (Molecular Devices) fluorescent plate reader (excitation at 360 nm; emission at 460 nm).
(§3) Potential inhibitors are evaluated using the quenched read (endpoint) method. Assays are carried out in the presence of variable concentrations of test compound. Reactions are initiated by addition of enzyme and substrate to wells containing inhibitor stamped in 100% DMSO. For endpoint assays, the reaction is quenched with the addition of E64. Dose response data is fit to an IC50 curve with preset fitting tools according to equation 1:
(§4) y=a+(b−a)/(1+(10^X/10^C)^d) (1)
(§5) where y is the response at a particular inhibitor concentration x, a is the minimum response value, b is the maximum response value, c is the IC50, and d is the slope of the IC50 curve. Assuming the compound is a competitive inhibitor, the apparent KI can be calculated from IC50, as shown in equation 2: […]

Falcipain-3 = target: T2, Falcipain-3 (Plasmodium falciparum, UniProt Q8IIL0); assay: falcipain-3 enzymatic assay (fluorogenic substrate H-D-VLR-AFC, endpoint); format: biochemical; conditions: parasitic recombinant enzyme, pH 5.5, quenched after 60 minutes
T2 sequence (Q8IIL0 243-492): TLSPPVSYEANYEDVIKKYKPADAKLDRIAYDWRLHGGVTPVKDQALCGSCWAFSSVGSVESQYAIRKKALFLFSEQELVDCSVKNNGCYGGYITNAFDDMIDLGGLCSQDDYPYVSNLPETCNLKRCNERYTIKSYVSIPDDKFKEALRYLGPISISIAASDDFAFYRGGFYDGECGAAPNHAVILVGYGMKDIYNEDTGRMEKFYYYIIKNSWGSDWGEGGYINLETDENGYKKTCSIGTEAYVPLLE
Description: as §1, §2, §3, §4, §5

[1] = tested on: Plasmodium falciparum parasite; assay: whole cell activity against the Plasmodium falciparum parasite; format: cell-based
Excerpt: Equation 7 describes the apparent KI for competitive compounds and was substituted into equations 5 and 6 to generate the relevant binding constants from the fitting routine. In addition, the initial and final velocities were fit to equation 3 to further define the binding mechanism and potency. A complete discussion of this kinetic treatment has been fully described (Morrison et al., Adv. Enzymol. Relat. Areas Mol. Biol., 1988, 61, 201). 2) Determination of Whole Cell Activity Against the Plasmodium falciparum Parasite Compounds can be evaluated for whole cell activity against the Plasmodium falciparum parasite according to the procedure described in Sijwali S, and Rosenthal P. J., (2004) Proceedings of the National Academy of Sciences of the United States of America (PNAS) 101(13), 4384-4389 (see in particular “Measurement of Parasite Growth rates and Inhibitor Sensitivity” on page 4385); IC50 values can be calculated as described in Singh A. and Rosenthal P. J., (2001) Antimicrobial Agents and Chemotherapy 45(3), 949-951 (see in particular page 950, first column); synchronised parasites can be prepared as described in Divo A. A. et al., (1985) Protozool. 32, 59-64.

Structure (SMILES)	IC50 (Falcipain-2) [nM]	IC50 (Falcipain-3) [nM]	IC50 [1] [nM]
CN1CCN(Cc2cccc(C(=O)NN(c3nc(C#N)nc4c3ncn4C)C3CCCC3)n2)CC1 [Example 26, N′-(2-cyano-9-methyl-9H-purin-6-yl)-N′-cyclopentyl-6-[(4-methyl-1-piperazinyl)methyl]-2-pyridinecarbohydrazide trifluoroacetate]	2.5 to 15	150 to 250	250 to 400
CN(C)CCn1cnc2c(N(NC(=O)c3ccc(CN4CCN(C)CC4)cc3)C3CCCC3)nc(C#N)nc21 [Example 40, N′-{2-cyano-9-[2-(dimethylamino)ethyl]-9H-purin-6-yl}-N′-cyclopentyl-4-[(4-methyl-1-piperazinyl)methyl]benzohydrazide trifluoroacetate]	2.5 to 15	250 to 400	15 to 150
CN1CCN(C(=O)n2cnc3c(N(NC(=O)OC(C)(C)C)C4CCCC4)nc(C#N)nc32)CC1 [Example 29, 1,1-dimethylethyl 2-{2-cyano-9-[(4-methyl-1-piperazinyl)carbonyl]-9H-purin-6-yl}-2-cyclopentylhydrazinecarboxylate]	≤ 1	2.5 to 15	400 to 1000
CN1CCC(N2CCN(Cc3ccc(C(=O)NN(CC4CCCC4)c4nc(C#N)nc5c4ncn5C)cc3)CC2)CC1 [Example 18, N′-(2-cyano-9-methyl-9H-purin-6-yl)-N′-(cyclopentylmethyl)-4-({[4-(1-methyl-4-piperidinyl)-1-piperazinyl]methyl}benzohydrazide trifluoroacetate]	2.5 to 15	15 to 150	15 to 150
CN(C)CCCn1cnc2c(N(NC(=O)OC(C)(C)C)C3CCOCC3)nc(C#N)nc21 [Example 19, 1,1-dimethylethyl 2-{2-cyano-9-[3-(dimethylamino)propyl]-9H-purin-6-yl}-2-(tetrahydro-2H-pyran-4-yl)hydrazinecarboxylate trifluoroacetate]	2.5 to 15	15 to 150	15 to 150
CC(C)(C)OC(=O)NN(CC1CCCC1)c1nc(C#N)nc2c1ncn2CCN1C(=O)c2ccccc2C1=O [Example 21, 1,1-dimethylethyl-2-{2-cyano-9-[2-(1,3-dioxo-1,3-dihydro-2H-isoindol-2-yl)ethyl]-9H-purin-6-yl}-2-(cyclopentylmethyl)hydrazinecarboxylate]	15 to 150	250 to 400	250 to 400
CC(=O)N1CCC(N(NC(=O)OC(C)(C)C)c2nc(C#N)nc3c2ncn3C)CC1 [Example 20, 1,1-dimethylethyl-2-(1-acetyl-4-piperidinyl)-2-(2-cyano-9-methyl-9H-purin-6-yl)hydrazinecarboxylate]	1 to 2.5	150 to 250	150 to 250
CN(C)CCn1cnc2c(N(NC(=O)c3ccc(CN4CCN(C)CC4)cc3)C3CCCCC3)nc(C#N)nc21 [Example 44, N′-{2-cyano-9-[2-(dimethylamino)ethyl]-9H-purin-6-yl}-N′-cyclohexyl-4-[(4-methyl-1-piperazinyl)methyl]benzohydrazide trifluoroacetate]	2.5 to 15	15 to 150	15 to 150
CN(C)CCn1cnc2c(N(NC(=O)OC(C)(C)C)C3CCCC3)nc(C#N)nc21 [Example 39, 1,1-dimethylethyl 2-{2-cyano-9-[2-(dimethylamino)ethyl]-9H-purin-6-yl}-2-cyclopentylhydrazinecarboxylate trifluoroacetate]	2.5 to 15	15 to 150	15 to 150
CN1CCN(c2ccc(C(=O)NN(c3nc(C#N)nc4c3ncn4C)C3CCCC3)cc2)CC1 [Example 32, N′-(2-cyano-9-methyl-9H-purin-6-yl)-N′-cyclopentyl-4-(4-methyl-1-piperazinyl)benzohydrazide trifluoroacetate]	2.5 to 15	15 to 150	250 to 400
CN(C)CCn1cnc2c(N(NC(=O)c3cccc(-c4ccc(CN5CCN(C)CC5)cc4)n3)C3CCCCC3)nc(C#N)nc21 [Example 45, N′-{2-cyano-9-[2-(dimethylamino)ethyl]-9H-purin-6-yl}-N′-cyclohexyl-6-{4-[(4-methyl-1-piperazinyl)methyl]phenyl}-2-pyridinecarbohydrazide trifluoroacetate]	2.5 to 15	15 to 150	15 to 150
CN(C)CCCN(C(=O)OC(C)(C)C)N(CC1CCCC1)c1nc(C#N)nc2c1ncn2CCCN(C)C [Example 16, 1,1-dimethylethyl 2-{2-cyano-9-[3-(dimethylamino)propyl]-9H-purin-6-yl}-2-(cyclopentylmethyl)-1-[3-(dimethylamino)propyl]hydrazinecarboxylate trifluoroacetate]	2.5 to 15	150 to 250	2.5 to 15
CN1CCN(Cc2ccc(C(=O)NN(c3nc(C#N)nc4[nH]cnc34)C3CCCCC3)cc2)CC1 [Example 30, N′-(2-cyano-1H-purin-6-yl)-N′-cyclohexyl-4-[(4-methyl-1-piperazinyl)methyl]benzohydrazide trifluoroacetate]	2.5 to 15	15 to 150	400 to 1000
CC(C)CN(NC(=O)c1ccc(CN2CCN(C)CC2)cc1)c1nc(C#N)nc2c1ncn2C [Example 22, N′-(2-cyano-9-methyl-9H-purin-6-yl)-4-[(4-methyl-1-piperazinyl)methyl]-N′-(2-methylpropyl)benzohydrazide]	15 to 150	250 to 400	400 to 1000
CN1CCC(CN2CCN(Cc3ccc(C(=O)NN(c4nc(C#N)nc5c4ncn5C)C4CCCC4)cc3)CC2)CC1 [Example 5, N′-(2-cyano-9-methyl-9H-purin-6-yl)-N′-cyclopentyl-4-({4-[(1-methyl-4-piperidinyl)methyl]-1-piperazinyl}methyl)benzohydrazide trifluoroacetate]	2.5 to 15	250 to 400	2.5 to 15
CN1CCN(C(=O)n2cnc3c(N(NC(=O)OC(C)(C)C)C4CCCCC4)nc(C#N)nc32)CC1 [Example 35, 1,1-dimethylethyl 2-{2-cyano-9-[(4-methyl-1-piperazinyl)carbonyl]-9H-purin-6-yl}-2-cyclohexylhydrazinecarboxylate trifluoroacetate]	≤ 1	1 to 2.5	150 to 250
CN1CCCC(CN2CCN(Cc3ccc(C(=O)NN(CC4CCCC4)c4nc(C#N)nc5c4ncn5C)cc3)CC2)C1 (centres unmarked) [Example 3, N′-(2-cyano-9-methyl-9H-purin-6-yl)-N′-(cyclopentylmethyl)-4-({4-[(1-methyl-3-piperidinyl)methyl]-1-piperazinyl}methyl)benzohydrazide trifluoroacetate]	2.5 to 15		15 to 150
